Reference: the supplement of paper PMC10307832

Experiments:
Assay in all cases: relative viability (nuclei count vs DMSO), 5 days (fraction); higher = more cells survive
[1] = tested on: PC-14
Outline: (§1)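 Lung cancer cell lines in 1536-well plates were dosed by pin tool the day after seeding, either with one drug alone or with a fixed anchor-drug dose plus five library-drug doses (not always all listed) in √10 steps. After 5 days, cells were fixed and their nuclei stained in one step (final 0.05% Triton X-100, 1% formaldehyde, 1 ug/ml Hoechst), then counted on 4× images. Relative viability is the nuclei count in treated wells divided by that in vehicle wells. Values are medians of duplicate plates.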

[2] = tested on: NCI-H522
Outline: as §1

[3] = tested on: NCI-H2009
Outline: as §1

[4] = tested on: EKVX
Outline: as §1

[5] = tested on: HOP-62
Outline: as §1

[6] = tested on: NCI-H2347
Outline: as §1

[7] = tested on: NCI-H2228
Outline: as §1

[8] = tested on: UMC-11
Outline: as §1

[9] = tested on: NCI-H1993
Outline: as §1

[10] = tested on: NCI-H1793
Outline: as §1

[11] = tested on: NCI-H1395
Outline: as §1

[12] = tested on: NCI-H2170
Outline: as §1

Question: What does the source list for COc1cc(N2CCC(C(N)=O)CC2)ccc1Nc1nc(N)c(Cl)c(Nc2ccccc2S(=O)(=O)C(C)C)n1 [HG-5-88-01] + O=C(c1cc(Cc2n[nH]c(=O)c3ccccc23)ccc1F)N1CCN(C(=O)C2CC2)CC1 [Olaparib] (partner 8 µM)?
Answer: relative viability ([1]; first compound 0.04 µM): 0.257; relative viability ([1]; first compound 0.1265 µM): 0.339; relative viability ([1]; first compound 0.4 µM): 0.321; relative viability ([1]; first compound 1.265 µM): 0.307; relative viability ([1]; first compound 4 µM): 0.0752; relative viability ([2]; first compound 0.04 µM): 0.724; relative viability ([2]; first compound 0.1265 µM): 0.665; relative viability ([2]; first compound 0.4 µM): 0.761; relative viability ([2]; first compound 1.265 µM): 0.574; relative viability ([2]; first compound 4 µM): 0.594; relative viability ([3]; first compound 0.04 µM): 0.684; relative viability ([3]; first compound 0.1265 µM): 0.651; relative viability ([3]; first compound 0.4 µM): 0.687; relative viability ([3]; first compound 1.265 µM): 0.685; relative viability ([3]; first compound 4 µM): 0.684; relative viability ([4]; first compound 0.04 µM): 0.896; relative viability ([4]; first compound 0.1265 µM): 0.955; relative viability ([4]; first compound 0.4 µM): 0.813; relative viability ([4]; first compound 4 µM): 0.633; relative viability ([5]; first compound 0.04 µM): 0.426; relative viability ([5]; first compound 0.1265 µM): 0.511; relative viability ([5]; first compound 0.4 µM): 0.396; relative viability ([5]; first compound 1.265 µM): 0.538; relative viability ([5]; first compound 4 µM): 0.283; relative viability ([6]; first compound 0.04 µM): 0.664; relative viability ([6]; first compound 0.1265 µM): 0.569; relative viability ([6]; first compound 0.4 µM): 0.61; relative viability ([6]; first compound 1.265 µM): 0.539; relative viability ([6]; first compound 4 µM): 0.549; relative viability ([7]; first compound 0.04 µM): 0.538; relative viability ([7]; first compound 0.1265 µM): 0.36; relative viability ([7]; first compound 0.4 µM): 0.424; relative viability ([7]; first compound 1.265 µM): 0.227; relative viability ([7]; first compound 4 µM): 0.253; relative viability ([8]; first compound 0.04 µM): 0.35; relative viability ([8]; first compound 0.1265 µM): 0.399; relative viability ([8]; first compound 0.4 µM): 0.45; relative viability ([8]; first compound 1.265 µM): 0.428; relative viability ([8]; first compound 4 µM): 0.274; relative viability ([9]; first compound 0.04 µM): 1.12; relative viability ([9]; first compound 0.1265 µM): 1.03; relative viability ([9]; first compound 0.4 µM): 0.949; relative viability ([9]; first compound 4 µM): 0.842; relative viability ([10]; first compound 0.04 µM): 0.878; relative viability ([10]; first compound 0.1265 µM): 0.84; relative viability ([10]; first compound 0.4 µM): 0.848; relative viability ([10]; first compound 1.265 µM): 0.651; relative viability ([10]; first compound 4 µM): 0.847; relative viability ([11]; first compound 0.04 µM): 0.499; relative viability ([11]; first compound 0.1265 µM): 0.467; relative viability ([11]; first compound 0.4 µM): 0.48; relative viability ([11]; first compound 1.265 µM): 0.472; relative viability ([11]; first compound 4 µM): 0.487; relative viability ([12]; first compound 0.04 µM): 0.64; relative viability ([12]; first compound 0.1265 µM): 0.669; relative viability ([12]; first compound 0.4 µM): 0.605; relative viability ([12]; first compound 1.265 µM): 0.53; relative viability ([12]; first compound 4 µM): 0.545
